For one experiment, the target named is T1, ΔTM rFAAH (Rattus norvegicus, UniProt P97612).
T1 construct: 15 ug of ΔTM rFAAH (cell lysate obtained by recombinant procedure); made in house
T1 sequence (P97612 30-579 limits assumed): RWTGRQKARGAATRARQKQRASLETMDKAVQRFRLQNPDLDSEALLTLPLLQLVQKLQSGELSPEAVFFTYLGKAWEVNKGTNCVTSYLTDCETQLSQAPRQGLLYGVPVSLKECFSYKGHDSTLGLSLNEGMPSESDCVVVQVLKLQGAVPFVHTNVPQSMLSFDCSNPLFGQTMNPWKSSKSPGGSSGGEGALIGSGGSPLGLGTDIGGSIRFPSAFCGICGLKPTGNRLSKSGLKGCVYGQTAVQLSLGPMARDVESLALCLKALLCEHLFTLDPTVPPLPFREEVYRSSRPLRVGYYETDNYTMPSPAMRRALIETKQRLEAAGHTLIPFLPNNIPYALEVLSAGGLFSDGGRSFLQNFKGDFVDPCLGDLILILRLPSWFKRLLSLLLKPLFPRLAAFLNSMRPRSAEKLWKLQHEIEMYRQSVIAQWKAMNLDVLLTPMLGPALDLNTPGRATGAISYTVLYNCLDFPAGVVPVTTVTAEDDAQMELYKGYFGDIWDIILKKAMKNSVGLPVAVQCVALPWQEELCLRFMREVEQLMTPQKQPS
Briefly: Fluorescent enzyme assay, FAAH (AAMCA hydrolysis). Type of experiment: biochemical. To be noted: AAMCA substrate; for inhibition at 0.01 µM: 10 nM inhibitor; for inhibition at 0.01 µM / inhibition at 1 µM: screening assay; for inhibition at 1 µM: 1000 nM inhibitor. Here is the method: (§1) Some analogs were tested for their FAAH/MGL inhibitory activity, which is expressed as % of inhibition (Tables 2, 3, and 4 below). The percentage of inhibition results from three-point assay (three concentrations of inhibitor are used) and it is less accurate (preliminary screening) than the IC50/Ki values that are determined from eight-point assay (eight different concentrations of inhibitor were used). The percentage of inhibition describes the percentage by which the inhibitor reduces the velocity/rate of AAMCA (arachidonoyl-7-amino-4-methylcoumarin amide) or AHMMCE (arachidonoyl-7-hydroxy-6-methoxy-4-methylcoumarin ester) hydrolysis by FAAH or MGL respectively. The IC50 is the concentration of the inhibitor, which results in 50% inhibition of the velocity/rate of AAMCA (arachidonoyl 7-amino-4-methylcoumarin amide) hydrolysis by FAAH or AHMMCE (Arachidonoyl, 7-hydroxy-6-methoxy-4-methylcoumarin ester) hydrolysis by MGL. The Ki value is the affinity constant and describes the ability of the compounds to inhibit the function of FAAH or MGL. The lower the IC50/Ki values, the higher the affinity of the inhibitor for the enzyme and the higher its inhibitory activity. A detailed description of the methods used to test inhibitory activity of compounds is given below.
The enzyme (FAAH and MGL) assays were performed in 96 well plates (Coster #3650) in a total volume of 200 uL. Fluorogenic substrate AAMCA (arachidonoyl 7-amino-4-methylcoumarin amide) for FAAH and AHMMCE (arachidonoyl 7-hydroxy-6-methoxy-4-methylcoumarin ester) for MGL were used using BioTek Synergy HT Microplate Reader. Compounds and substrates were dissolved in DMSO provide a 10 mM stock solution and kept as a stock solution at −20° C. until used for assay. Stock solutions were thawed and reconstituted in 50:50 DMSO/assay buffer to a final DMSO concentration per well below 8%. This ensures that the compounds and substrate are in solution during assay. […] Appropriate substrate was added to adjust the final concentration in each well to 20 uM for FAAH (2× Km) and 10 uM for MGL (1×KM). Fluorescence readings were performed at λex=360/λem=460 for 4 h using Kinetic assay protocol at every 20 min (the fluorescent product coumarin produced is quantitated by this procedure). The readings at 3 h for FAAH and 2 h for MGL (linear maximum hydrolysis kinetics of enzyme on substrate) were used to calculate percent inhibition based on controls. Compounds which had more than 50 percent inhibition at 10 uM were selected for dose response study to determine IC50 values. The dose response at 8 concentration points was performed as with the screening assay except that compounds were serially diluted to 8 concentration points which were chosen based on IC50 value, which were calculated from the screening assay results. Assays are run twice in triplicates and Graphpad Prism software is used to plot inhibition data to obtain IC50 values.

For another experiment, the target named is T2, hMGL (Homo sapiens, UniProt Q99685).
T2 construct: A full-length cDNA clone of the human MGL transcript variant 1; made in house; host or cells: E. coli BL21 (DE3)
T2 sequence (Q99685 2-303 limits assumed): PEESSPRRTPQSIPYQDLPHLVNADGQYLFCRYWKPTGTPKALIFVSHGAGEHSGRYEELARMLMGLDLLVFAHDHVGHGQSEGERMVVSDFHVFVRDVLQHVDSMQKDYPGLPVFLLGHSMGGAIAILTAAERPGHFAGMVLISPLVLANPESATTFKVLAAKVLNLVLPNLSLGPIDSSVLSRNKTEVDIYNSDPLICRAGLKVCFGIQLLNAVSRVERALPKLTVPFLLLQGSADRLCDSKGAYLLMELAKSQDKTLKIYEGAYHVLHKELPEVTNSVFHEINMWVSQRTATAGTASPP
The experiment in a line: Fluorescent enzyme assay, MGL (AHMMCE hydrolysis). The format is biochemical. The conditions noted are these: for inhibition at 0.01 µM: 10 nM inhibitor, read-out: % Inhibition of Enzyme by inhibitor, MGL, 10 nM; for inhibition at 0.01 µM / inhibition at 1 µM: screening assay; for inhibition at 1 µM: 1000 nM inhibitor; for inhibition at 100 µM: 100 uM inhibitor, printed in the 1000 nM column. Here is the method: as §1
A full-length cDNA clone of the human MGL transcript variant 1 (gi: 51242951) was obtained from OriGene Technologies (Rockville, Md.). The coding part of the MGL sequence (except the translation initiation codon ATG) was amplified by a polymerase chain reaction (PCR) using forward […] and reverse […] primers containing PmlI and SacI restriction enzyme recognition sites, respectively. iProof high-fidelity DNA polymerase (Bio-Rad, Hercules, Calif.) was used in the PCR amplification with 33 cycles, each consisting of denaturation at 94° C. for 10 s, annealing at 55° C. for 33 s, and extension at 72° C. for 1 min. The PCR product and pET45b vector were digested with PmlI and SacI restriction enzymes, and the vector was dephosphorylated with CIP followed by in-gel purification using the MinElute Gel Extraction Kit (Qiagen Corp., Valencia, Calif.). The fragment was inserted into the vector directly downstream after the 6 histidine and valine codons, generating the construct pET45His6hMGL for expression of hMGL containing an N-terminal His6-tag. GC10 E. coli cells were used for DNA transformation and plasmid propagation. Mini- and midi-scale plasmid DNA preparations were performed using a GenElute Plasmid Miniprep Kit (Sigma) and PureYield Plasmid Midiprep System (Promega, Madison, Wis.), respectively. In-frame vector-fragment junctions and the coding sequence of the recombinant gene were confirmed by sequencing. The pET45His6hMGL construct was transformed into BL21 (DE3) and Origami (DE3) E. coli expression strains (Novagen, Madison, Wis.).
A single E. coli BL21 (DE3) colony containing the pET45His6hMGL plasmid was inoculated into 12 mL of Luria broth-ampicillin medium and grown overnight with shaking (250 rpm) at 37° C. The next morning, 10 mL of this culture was inoculated into 1 L of fresh Luria broth-ampicillin and allowed to grow until culture turbidity reached an (OD)600 of 0.6-0.8, at which time expression from the T7 promoter was induced by adding isopropyl-β-D-thio-galactopyranoside (1 mM). After 5 h induction, the cells were harvested by centrifugation at 5,000 g for 10 min at 4° C., washed with PBS, and held at −80° C. Five grams (wet-weight) of cells were resuspended in 50 mL lysis buffer (100 mM NaCl; 50 mM Tris, pH 8.0) supplemented with Triton X-100 (0.5%), lysozyme (0.2 mg/mL), and DNase I (25 μg/ml) and disrupted on ice by three, one-min sonication cycles, each consisting of 1-sec sonication bursts at 50 W power separated from each other by a 2-sec interval (Vibra-Cell 500 W, Sonics, Newtown, Conn.). The cell lysate was centrifuged at 10,000 g for 30 min at 4° C. […]

For orientation: inhibition means the drop in the measured response relative to a control, in per cent. Regarding `CN(C)C(=O)n1ncnn1` [Compound 1a, N,N-dimethyl-2H-tetrazole-2-carboxamide], the results for the inhibition at 0.01 µM at ΔTM rFAAH and at hMGL (AHMMCE substrate) were 73% and 58%, respectively. The like results for `CN(C)C(=O)n1cnnn1` [Compound 1b] were, in that order, 51% and 13%.

As for `CN(C)C(=O)n1nnnc1-c1cc2ccccc2[nH]1` [Compound 3b, 5-(1H-indol-2-yl)-N,N-dimethyl-2H-tetrazole-1-carboxamide], the inhibition at 0.01 µM at ΔTM rFAAH is 97%; at hMGL (AHMMCE substrate), 92%.

With `CN(C)C(=O)n1nnnc1CC(=O)c1ccccc1` [Compound 4, N,N-dimethyl-5-(2-oxo-2-phenylethyl)-1H-tetrazole-1-carboxamide], the inhibition at 0.01 µM was determined as 100% at ΔTM rFAAH and 90% at hMGL (AHMMCE substrate). Consider `CN(C)C(=O)n1nnnc1Cc1cccnc1` [Compound 5, N,N-dimethyl-5-(pyridin-3-yl-methyl)-1H-tetrazole-1-carboxamide], for which the inhibition at 0.01 µM at ΔTM rFAAH was 84%; at hMGL (AHMMCE substrate), 81%. Regarding `O=C(N1CCOCC1)n1nnc(Cc2ccc(Cl)cc2Cl)n1` [Compound 6, 4-{[5-(2,4-dichlorobenzyl)-tetrazol-2-yl]carbonyl}morpholine], the inhibition at 0.01 µM on ΔTM rFAAH came to 94%; at hMGL (AHMMCE substrate) it was 88%. On to `CN(C(=O)n1nnc(Cc2ccc(Cl)cc2Cl)n1)c1ccccc1` [Compound 7a, 5-(2,4-dichlorobenzyl)-N-methyl-N-phenyl-2H-tetrazole-2-carboxamide], for which the values for the inhibition at 0.01 µM on ΔTM rFAAH and at hMGL (AHMMCE substrate) were 84% and 58%, respectively. For `CN(C(=O)n1nnnc1Cc1ccc(Cl)cc1Cl)c1ccccc1` [Compound 7b], the inhibition at 0.01 µM amounted to 89% on ΔTM rFAAH and 8% at hMGL (AHMMCE substrate).

As a reminder, the IC50 is the point on the concentration scale where inhibition reaches its midpoint. As to `O=C(N(c1ccccc1)c1ccccc1)n1nnc(Cc2ccc(Cl)cc2Cl)n1` [Compound 8a, 5-(2,4-dichlorobenzyl)-N,N-diphenyl-2H-tetrazole-2-carboxamide], the inhibition at 1 µM stood at 66% on ΔTM rFAAH and 100% on hMGL (AHMMCE substrate). Moreover, the IC50 at ΔTM rFAAH (eight-point dose response) was found to be 1300 nM; on hMGL (eight-point dose response, AHMMCE substrate) it was 40 nM. Regarding `O=C(N(c1ccccc1)c1ccccc1)n1nnnc1Cc1ccc(Cl)cc1Cl` [Compound 8b], the inhibition at 1 µM on ΔTM rFAAH was found to be 9%; at hMGL (AHMMCE substrate), 21%. In the case of `CCN(CC)C(=O)n1nnc(Cc2ccc(Cl)cc2Cl)n1` [Compound 9, 5-(2,4-dichlorobenzyl)-N,N-diethyl-tetrazole-2-carboxamide], the inhibition at 0.01 µM is 95% at ΔTM rFAAH and 43% on hMGL (AHMMCE substrate).

Consider `CC(C)N(C(=O)n1nnc(Cc2ccc(Cl)cc2Cl)n1)C(C)C` [Compound 10, 5-(2,4-dichlorobenzyl)-N,N-diisopropyl-tetrazole-2-carboxamide], for which the inhibition at 1 µM stood at 94% on ΔTM rFAAH and 11% at hMGL (AHMMCE substrate). `O=C(N1CCC2(CC1)OCCO2)n1nnc(Cc2ccc(Cl)cc2Cl)n1` [Compound 14]: the inhibition at 1 µM on ΔTM rFAAH stood at 97%; at hMGL (AHMMCE substrate) it was 52%. For the molecule `O=C(N1CCN(Cc2ccccc2)CC1)n1nnc(Cc2ccc(Cl)cc2Cl)n1` [Compound 15], the results for the inhibition at 1 µM at ΔTM rFAAH and against hMGL (AHMMCE substrate) were 95% and 63%, respectively.

In the case of `CN(C)S(=O)(=O)n1nnc(Cc2ccc(-c3ccccc3)cc2)n1` [Compound 38a], the inhibition at 1 µM on ΔTM rFAAH is 25%. As for `CN(C)C(=O)n1nnc(Cc2ccc(-c3cccnc3)cc2)n1` [Compound 43, N,N-dimethyl-5-(4-(pyridin-3-yl)benzyl)-2H-tetrazole-2-carboxamide], the inhibition at 1 µM at ΔTM rFAAH stood at 34%. As to `CN(C)C(=O)n1nnc(Cc2ccccc2Cl)n1` [Compound 45, 5-(2-chlorobenzyl)-N,N-dimethyl-2H-tetrazole-2-carboxamide], the inhibition at 0.01 µM at hMGL (AHMMCE substrate) is 93%. Turning to `CN(C)C(=O)n1nnc(C(F)(F)c2ccccc2)n1` [Compound 46, 5-(difluoro(phenyl)methyl)-N,N-dimethyl-2H-tetrazole-2-carboxamide], at hMGL (AHMMCE substrate), the inhibition at 0.01 µM was determined as 2% and the inhibition at 1 µM is 92%. For `CN(C)C(=O)n1cnc(-c2ccccc2)n1` [Compound 52, N,N-dimethyl-3-phenyl-1H-1,2,4-triazole-1-carboxamide], on hMGL (AHMMCE substrate), the inhibition at 0.01 µM amounted to 2% and 1 µM produced 87% inhibition. On hMGL, `O=C(N1CCN(Cc2ccc3ccccc3n2)CC1)n1cnc(-c2ccccc2)c1` [Compound 64, (4-phenyl-1H-imidazol-1-yl)(4-(quinolin-2-ylmethyl)piperazin-1-yl)methanone] had an inhibition at 100 µM of 19%. For `O=C(N1CCN(Cc2ccc3ccccc3n2)CC1)n1nnc(Cc2ccc(Cl)cc2Cl)n1` [Compound 65, (5-(2,4-dichlorobenzyl)-2H-tetrazol-2-yl)(4-(quinolin-2-ylmethyl)piperazin-1-yl)methanone], the inhibition at 100 µM on hMGL came to 68%.
